According to US20240197722A1, “ANTICANCER COMPOSITION INDUCING CELL SENESCENCE AND CELL DEATH” (OSTEONEUROGEN INC., priority 2021, published 2024):

Key:
A549 cells = experiment: Immunocytochemistry for cell senescence morphology in A549 cells; format: cell-based; conditions: for effect of inducing cancer cell-specific cell senescence: summary of chromone scaffold derivatives, FIG. 21
Method: The cells were incubated with Rhodamine Phalloidin (Thermo Fisher, Massachusetts, US) for 4 hours at room temperature. After washing, the cells were incubated with Alexa Fluor 488 (Abcam, Cambridge, UK)-conjugated secondary antibody. Images were analyzed by using EVOS M7000 (Invitrogen, CA, USA). Nuclei were counterstained with DAPI.

[1] = tested on: Normal human lung fibroblasts (NHLF); experiment: CCK-8 cell proliferation assay in normal human lung fibroblasts; format: cell-based; conditions: CCK-8, FIG. 19
PC3 cells = experiment: Caspase-3/7 activity (apoptosis) in PC3 cells; format: cell-based, human; conditions: PC3, Caspase-3/7 activity, various concentrations
Method: Caspase-3/7 activity was measured by using a Caspase-3/7 assay kit (Promega, G8091). […] Afterwards, Caspase-3/7 activity was analyzed according to the manufacturer's protocol.

NHLF cells [2] = experiment: Mitochondrial membrane potential (MTMP) analysis in NHLF; format: cell-based, human; conditions: for apoptosis in normal cells: measured with MTMP, Caspase3 and LDH, FIG. 20
NHLF cells [3] = experiment: Caspase-3 activity assay in NHLF; format: cell-based; conditions: Homo sapiens, read-out: Caspase3: EC 50
Method: (ii) Caspase-3 activity assay was measured by using a Caspase-3 assay kit (Abcam, ab37401). […] Thereafter, protein was measured with BCA (Thermo, 23227), and the protein was adjusted to 50 μg per 50 μL of cell lysis buffer. Afterwards, Caspase-3 activity was analyzed according to the manufacturer's protocol.

NHLF cells [4] = experiment: LDH cytotoxicity assay in NHLF; format: cell-based; conditions: Homo sapiens, read-out: LDH: EC 50
Method: (iii) LDH cytotoxicity assay detected LDH release by using an LDH assay kit (Abcam, ab56393). […] Absorbance values were measured at 450 nm in a microplate reader.

H358 cells = experiment: CCK-8 cell proliferation assay in H358 cells; format: cell-based; conditions: H358, 30 μM or more, 72 hours
Method: H358 cells were seeded in 96-well plates at a concentration of 3×10^4 cells/well for 24 hours.

PANC1 = experiment: CCK-8 cell proliferation assay in PANC1 cells; format: cell-based, human; conditions: Homo sapiens, PANC-1; PANC1, CCK-8, 72 hours

SMILES: O=c1cc(-c2ccc(O)cc2)oc2cc(O)cc(O)c12 [Apigenin]
- effect of inducing cancer cell-specific cell senescence (A549 cells): does not induce

SMILES: COc1c(O)cc2oc(-c3ccc(O)cc3)cc(=O)c2c1O [Histidulin, Hispidulin]
- effect of inducing cancer cell-specific cell senescence (A549 cells): do not exert any effect

SMILES: COc1cc(-c2cc(=O)c3c(O)c(OC)c(O)cc3o2)ccc1O [Jaceocidin, Jaceosidin]
- effect of inducing cancer cell-specific cell senescence (A549 cells): do not exert any effect

SMILES: COc1ccc(-c2cc(=O)c3c(O)c(OC)c(O)cc3o2)cc1OC [ONG21001, Eupatilin]
- cell flatness (morphological change of cell senescence) (A549 cells; A549, 20 μM each, 72 hours, FIG. 1): specifically observed

SMILES: O=C(CCCCCCC(=O)Nc1ccccc1)NO [SAHA, suberoylanilide hydroxamic acid]
- cell proliferation of normal cells [1]: inhibited cell proliferation
- PC3 apoptosis (PC3 cells): induced PC3 apoptosis in a concentration-dependent manner
- apoptosis in normal cells (NHLF cells [2]): induced strong apoptosis

SMILES: COC(=O)c1ccc2c(c1)NC(=O)/C2=C(\Nc1ccc(N(C)C(=O)CN2CCN(C)CC2)cc1)c1ccccc1 [nintedanib]
- cell proliferation of normal cells [1]: inhibited cell proliferation
- EC50 (NHLF cells [3]): 128 µM
- EC50 (NHLF cells [4]): 218 µM
- IC50 (NHLF cells [2]; Homo sapiens, read-out: MTMP: IC 50): 41 µM
- apoptosis in normal cells (NHLF cells [2]): induced strong apoptosis

SMILES: CC(=O)O[C@H]1C(=O)[C@@]2(C)[C@H]([C@H](OC(=O)c3ccccc3)[C@]3(O)C[C@H](OC(=O)[C@H](O)[C@@H](NC(=O)c4ccccc4)c4ccccc4)C(C)=C1C3(C)C)[C@]1(OC(C)=O)CO[C@@H]1C[C@@H]2O [paclitaxel, reference compound]
- inhibition of proliferation (H358 cells): inhibited the proliferation of non-small cell lung cancer cells to a similar level
- IC50 (PANC1): 84.7 µM
